Results from US6528048B1, “Ophthalmic solutions” (Rohto Pharmaceutical Co., Ltd., priority 1998, dated 2003).

Tested on: rabbit corneal epithelial cells
Test: Cytotoxicity, Neutral red assay
Type: cell-based
Settings: cultured 2 days
Description: Cytotoxicity of the compound (3) was evaluated by conducting a test according to the method of Neutral red assay using rabbit corneal epithelial cells of a CornePack kit (Kurabo Industries, Ltd.). The frozen cells of the primary culture were inoculated at a density of 4000 cells/cm^2 in a 25-cm^2 flask. The cells were cultured at 37° C. under an atmosphere of 5% CO2 for 5 days (the secondary culture) and then 100 μl aliquots of them were inoculated in the wells of a 96-well multi-plate at a cell density of 2500 cells/well. The culture was continued at 37° C. under an atmosphere of 5% CO2 for 3 days (tertiary culture). […] A 100 μl aliquot of the solutions was added into each well containing the corneal epithelial cells of the tertiary culture. The cells were further cultured at 37° C. under an atmosphere of 5% CO2 for 2 days. A 100 μl aliquot of a Neutral red solution (about 150 μg/ml) was added into each well. The cells were further cultured at 37° C. under an atmosphere of 5% CO2 for 2 hours to incorporate Neutral red into lysosomes of the viable cells. Then the culture supernatants were discarded by inverting the plate. A 200 μl aliquot of a solution containing formalin and calcium chloride were added into each well and the cells were fixed for 1 minute to improve the cell adhesion to the plate. The remaining Neutral red was washed out from the wells. Subsequently, the supernatants in the wells were discarded and 100 μl aliquots of a mixture consisting of acetic acid and ethanol were added to the wells. The plate was allowed to stand for 20 minutes to extract Neutral red incorporated in the viable cells. The amount of Neutral red was determined by measuring the absorbance at a wavelength of 540 nm. The averaged absorbance value of the blank (the measured value, which was obtained by the same assay procedure but in the absence of Neutral red, for the untreated control cells cultured under the same condition) was subtracted from the measured value of the sample to give the correction absorbance value. The viable cell rate was calculated from the ratio of the sample absorbance to the absorbance for the untreated cells according to the following equation. Viable cell rate in each plate=(Averaged absorbance of each test solution/Averaged absorbance of the untreated control)×100

| Molecule | Viable cell rate (test solution 1.0 μg/ml) [%] | Viable cell rate (test solution 2.5 μg/ml) [%] | Viable cell rate (test solution 5.0 μg/ml) [%] | Viable cell rate (test solution 10.0 μg/ml) [%] | Viable cell rate (test solution 0.5 μg/ml) [%] |
| --- | --- | --- | --- | --- | --- |
| N=C(NCCCCCCNC(=N)NC(=N)Nc1ccc(Cl)cc1)NC(=N)Nc1ccc(Cl)cc1.O=C(O)[C@H](O)[C@@H](O)[C@H](O)[C@H](O)CO.O=C(O)[C@H](O)[C@@H](O)[C@H](O)[C@H](O)CO [Chlorhexidine gluconate] | 103 | 74 | 49 | 3 | – |
| Benzalkonium chloride | 52 | 49 | 2 | – | 60 |
